Consider five compounds from US20250206761A1, “HALOINDOLE MACROCYCLIC COMPOUNDS FOR THE TREATMENT OF CANCER” (Hoffmann-La Roche Inc., priority 2022, published 2025).

In test [1] the target is KRAS G12D binding to BRAF (Homo sapiens (Human), UniProt P01116+P62937, G12D). The test can be described thus: KRAS-BRAF with CYPA (500 nM) interaction assay (TR-FRET), G12D. The test is classed as biochemical. The protocol:
(§1) In this example, TR-FRET was also used to measure the compound or compound-CYPA dependent disruption of the KRAS G12C-BRAF complex. This protocol was also used to measure disruption of KRAS G12D or KRAS G12V binding to BRAF by a compound of the invention, respectively. In assay buffer containing 25 mM HEPES PH=7.4 (4-(2-hydroxyethyl)-1-piperazineethanesulfonic acid, Thermo, 15630080), 0.002% Tween20, 0.1% BSA, 100 mM NaCl, 5 mM MgCl2, 10 μM GMPPNP (Guanosine 5′-[β,γ-imido]triphosphate trisodium salt hydrate, Sigma, G0635), […] 384-well assay plate at final concentrations of 50 nM, 6.25 nM and 1 nM, respectively. Compound was present in plate wells as a 16-point 3-fold dilution series starting at a final concentration of 10 μM and incubated for 3 hours. A mixture of MAb Anti-6His-XL665 (Cisbio, 61HISXLB) and Mab anti-GST-TB cryptate (Cisbio, 61GSTTLB) was then added at a final concentration of 6.67 nM and 0.21 nM, respectively, and the plate was incubated for an additional 1.5 hours. TR-FRET signal was read on a PHERstar FSX microplate reader (Ex320 nm, Em 665/615 nm). Compounds that facilitate disruption of the KRAS-BRAF complex were identified as those eliciting a decrease in the TR-FRET ratio relative to DMSO control wells.
(In general: Time-resolved FRET reads energy transfer from a long-lived donor to a nearby acceptor.)

Test [2] concerns the target KRAS G12V binding to BRAF (Homo sapiens (Human), UniProt P01116+P62937, G12V). The test is described as follows: KRAS-BRAF with CYPA (500 nM) interaction assay (TR-FRET), G12V. The format is biochemical. The protocol: In this example, TR-FRET was also used to measure the compound or compound-CYPA dependent disruption of the KRAS G12C-BRAF complex. This protocol was also used to measure disruption of KRAS G12D or KRAS G12V binding to BRAF by a compound of the invention, respectively. In assay buffer containing 25 mM HEPES PH=7.4 (4-(2-hydroxyethyl)-1-piperazineethanesulfonic acid, Thermo, 15630080), 0.002% Tween20, 0.1% BSA, 100 mM NaCl, 5 mM MgCl2, 10 μM GMPPNP (Guanosine 5′-[β,γ-imido]triphosphate trisodium salt hydrate, Sigma, G0635), […], GMPPNP loaded 6His-KRAS proteins, and […], 6.25 nM and 1 nM, respectively. Compound was present in plate wells as a 16-point 3-fold dilution series starting at a final concentration of 10 μM and incubated for 3 hours. A mixture of MAb Anti-6His-XL665 (Cisbio, 61HISXLB) and Mab anti-GST-TB cryptate (Cisbio, 61GSTTLB) was then added at a final concentration of 6.67 nM and 0.21 nM, respectively, and the plate was incubated for an additional 1.5 hours. TR-FRET signal was read on a PHERstar FSX microplate reader (Ex320 nm, Em 665/615 nm). Compounds that facilitate disruption of the KRAS-BRAF complex were identified as those eliciting a decrease in the TR-FRET ratio relative to DMSO control wells.

Test [3] concerns phosphorylation of ERK, KRAS G12V in SW620. The test can be described thus: pERK inhibition assay, KRAS G12V. The format is cell-based, human. As to conditions: Homo sapiens, SW-620, SW620, 4 hours. The procedure:
(§2) This assay is to measure the ability of test compounds in inhibiting the phosphorylation of ERK, the downstream signaling of KRAS G12C in NCJ-H358 cells, KRAS G12D in AGS cells, and KRAS G12V in SW620. NCJ-H358 (ATCC-CRL5807) cells, AGS (ATCC-CRL-1739) cells, SW620 (ATCC-CCL-227) cells were all grown and maintained using RPMI-1640 medium (Thermo Fisher Scientific) with 10% fetal bovine serum and 1% penicillin/streptomycin. On the day prior to compound addition, cells were plated in tissue culture-treated 96 well plates (Corning-3699) at a density of 30,000 cell/well, 20,000 cell/well, 30,000 cell/well for NCJ-H358, AGS and SW620 respectively, and allowed for attachment overnight. Diluted compounds were then added in a final concentration of 0.5% DMSO. After 4 hours of incubation, the medium was removed, 100 μL of 4% formaldehyde was added, and the assay plates were incubated at room temperature for 20 minutes. The plates were then washed once with phosphate buffered saline (PBS), and permeabilized with 100 μL of chilled methanol for 10 minutes. Non-specific antibody binding to the plates was blocked using 50 μL 1×BSA blocking buffer (Thermo-37520, 10-fold dilution by Phosphate-Buffered Saline Tween (PBST) for at least 1 hour at room temperature.
(§3) The amount of phosphor-ERK was determined using an antibody specific for phosphorylated form of ERK. Primary antibody (pERK, CST-4370, Cell Signaling Technology) was diluted 1:300 in blocking buffer, with 50 μL aliquoted to each well, and incubated overnight at 4′° C. Cells was washed five times for 5 minutes with PBST. Secondary antibody ([…] anti-rabbit IgG, CST-7074, Cell Signaling Technology) was diluted 1:1000 in blocking buffer, and 50 μL was added to each well and incubated 1-2 hrs at room temperature. Cells was washed 5 times for 5 minutes with PBST, 100 μL TMB ELISA substrate (abcam-ab171523) were added and gently shake for 20 minutes. 50 μL stop solution (abcam-ab171529) were added, and then read the signal (OD450) by EnVision.
(§4) IC50 was determined by fitting a 4-parameter sigmoidal concentration response model.

The subject of test [4] is phosphorylation of ERK, KRAS G12C in NCJ-H358 cells. The test can be described thus: pERK inhibition assay, KRAS G12C. The note with it: Homo sapiens, 4 hours. The format is cell-based, human. The protocol:
as §2, §3, §4

The target in test [5] is KRAS G12C-BRAF complex (Homo sapiens (Human), UniProt P01116+P62937, G12C). The test is described as follows: KRAS-BRAF with CYPA (500 nM) interaction assay (TR-FRET), G12C. The format is biochemical. The procedure:
as §1

For test [6], the system named is AGS (ATCC-CRL-1739) cells. The test is described as follows: Cell viability assay, G12D (AGS). The format is cell-based, human. As to conditions: KRAS cell viability, 72 hrs, Cell Counting Kit-8. The protocol: (§5) The purpose of this cellular assay was to determine the effects of test compounds on the proliferation of human cancer cell lines NCI-H358 (ATCC-CRL5807) cells, AGS (ATCC-CRL-1739) cells, SW620 (ATCC-CCL-227) over a 3-day treatment period by quantifying the amount of NADPH present at endpoint using Cell Counting Kit-8.
(§6) Cells were seeded at 5,000 cells/well (NCI-H358), 2,000 cells/well (AGS) 2,000 cells/well (SW620) in 96-well assay plates (Corning-3699) and incubated overnight. On the day of the assay, diluted compounds were then added in a final concentration of 0.5% DMSO. After 72 hrs incubation, a tenth of the volume of cell counting kit 8 (Dnjindo-CK04) was added into each well. Read the signal (OD450 minus OD650) using EnVision after 2 hrs incubation. IC50 was determined by fitting a 4-parameter sigmoidal concentration response model.
(Formazan colour is commonly taken as a measure of viable cells.)

Test [7] deals with SW620 (ATCC-CCL-227). The test is described as follows: Cell viability assay, G12V (SW620). The test is classed as cell-based, human. As to conditions: KRAS cell viability, SW620, 72 hrs, Cell Counting Kit-8. The protocol: as §5, §6

The IC50 is the concentration needed to halve the response being measured. Read a high IC50 as a need for much substance.

Sequence of KRAS G12C-BRAF complex (P01116-2 other isoform, or with tags, fused parts or gaps G12C): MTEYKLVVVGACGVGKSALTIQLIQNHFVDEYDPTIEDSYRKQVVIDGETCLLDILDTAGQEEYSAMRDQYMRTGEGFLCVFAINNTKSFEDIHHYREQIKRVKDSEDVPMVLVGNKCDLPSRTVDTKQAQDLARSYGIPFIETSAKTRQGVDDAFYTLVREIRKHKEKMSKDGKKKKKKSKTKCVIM
Sequence of KRAS G12C-BRAF complex (P62937 whole entry): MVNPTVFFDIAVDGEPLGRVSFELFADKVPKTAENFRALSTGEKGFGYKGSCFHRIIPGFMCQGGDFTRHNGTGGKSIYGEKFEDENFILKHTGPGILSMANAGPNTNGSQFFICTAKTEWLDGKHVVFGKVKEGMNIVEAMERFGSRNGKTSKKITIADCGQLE
Sequence of KRAS G12D binding to BRAF (P01116-2 other isoform, or with tags, fused parts or gaps G12D): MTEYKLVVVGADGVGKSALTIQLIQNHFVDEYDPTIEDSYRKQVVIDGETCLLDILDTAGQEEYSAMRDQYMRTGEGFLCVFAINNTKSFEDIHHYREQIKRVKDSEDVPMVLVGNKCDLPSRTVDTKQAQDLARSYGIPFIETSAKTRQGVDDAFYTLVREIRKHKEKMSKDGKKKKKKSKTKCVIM
Sequence of KRAS G12D binding to BRAF (P62937 whole entry): as the sequence (P62937 whole entry) above
Sequence of KRAS G12V binding to BRAF (P01116-2 other isoform, or with tags, fused parts or gaps G12V): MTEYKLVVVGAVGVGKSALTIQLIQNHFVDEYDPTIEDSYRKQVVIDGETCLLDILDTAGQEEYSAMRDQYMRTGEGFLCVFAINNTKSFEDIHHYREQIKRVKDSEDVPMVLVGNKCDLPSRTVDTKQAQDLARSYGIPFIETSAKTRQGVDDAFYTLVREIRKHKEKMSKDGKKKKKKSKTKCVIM
Sequence of KRAS G12V binding to BRAF (P62937 whole entry): as the sequence (P62937 whole entry) above

Regarding `CCn1c(-c2cc(N3CCN(CC(F)(F)F)CC3)cnc2[C@H](C)OC)c2c3cc(c(F)cc31)-c1csc(n1)C[C@H](NC(=O)[C@H](C(C)C)N1CCCC3(CCN(C(=O)[C@H](F)Cl)CC3)C1=O)C(=O)N1CCC[C@H](N1)C(=O)OCC(C)(C)C2` (atropisomer, axis not shown; (M)) [Example 48, (2S)-2-[9-[(2R)-2-chloro-2-fluoro-acetyl]-1-oxo-2,9-diazaspiro[5.5]undecan-2-yl]-N-[(7S,13S)-21-ethyl-24-fluoro-(20M)-20-[2-[(1S)-1-methoxyethyl]-5-[4-(2,2,2-trifluoroethyl)piperazin-1-yl]-3-pyridyl]-17,17-dimethyl-8,14-dioxo-15-oxa-4-thia-9,21,27,28-tetrazapentacyclo[17.5.2.1^2,5.1^9,13.0^22,26]octacosa-1(25),2,5(28),19,22(26),23-hexaen-7-yl]-3-methyl-butanamide], the half-inhibitory concentration (IC50) in test [1] is 1.03 µM; in test [2], more than 10 µM; in test [3] it was 0.012 µM; in test [4], 0.002 µM; in test [5], 0.047 µM.

For the compound `CCn1c(-c2cc(N3CCN(C)CC3)cnc2[C@H](C)OC)c2c3cc(c(F)cc31)-c1csc(n1)C[C@H](NC(=O)[C@H](COC1CN(C(=O)[C@H](F)Cl)C1)C(C)C)C(=O)N1CCC[C@H](N1)C(=O)OCC(C)(C)C2` (atropisomer, axis not shown; (M)) [Example 41, (2S)-2-[[1-[(2R)-2-chloro-2-fluoro-acetyl]azetidin-3-yl]oxymethyl]-N-[(7S,13S)-21-ethyl-24-fluoro-(20M)-20-[2-[(1S)-1-methoxyethyl]-5-(4-methylpiperazin-1-yl)-3-pyridyl]-17,17-dimethyl-8,14-dioxo-15-oxa-4-thia-9,21,27,28-tetrazapentacyclo[17.5.2.1^2,5.1^9,13.0^22,26]octacosa-1(25),2,5(28),19,22(26),23-hexaen-7-yl]-3-methyl-butanamide], the IC50 in test [1] is more than 10 µM; in test [2], 1.17 µM; in test [3], 0.199 µM; in test [4] it was 0.107 µM; in test [5], 0.088 µM.

As to `CO[C@@H](C)c1ncc(N2CCN(C)CC2)cc1-c1c2c3cc(c(F)cc3n1CC(F)(F)F)-c1csc(n1)C[C@H](NC(=O)[C@H](C(C)C)N1CCC3(CN(C(=O)[C@H](F)Cl)C3)C1=O)C(=O)N1CCC[C@H](N1)C(=O)OCC(C)(C)C2` (atropisomer, axis not shown) [Example 25, (2S)-2-[2-[(2R)-2-chloro-2-fluoro-acetyl]-5-oxo-2,6-diazaspiro[3.4]octan-6-yl]-N-[(7S,13S)-24-fluoro-20-[2-[(1S)-1-methoxyethyl]-5-(4-methylpiperazin-1-yl)-3-pyridyl]-17,17-dimethyl-8,14-dioxo-21-(2,2,2-trifluoroethyl)-15-oxa-4-thia-9,21,27,28-tetrazapentacyclo[17.5.2.1^2,5.1^9,13.0^22,26]octacosa-1(25),2,5(28),19,22(26),23-hexaen-7-yl]-3-methyl-butanamide], the IC50 stood at 1.65 µM in test [6] (Homo sapiens); 6.06 µM in test [1]; 3.54 µM in test [2]; 0.098 µM in test [5]; 0.089 µM in test [7] (Homo sapiens, SW-620).

`CCn1c(-c2cc(N3CCOCC3)cnc2[C@H](C)OC)c2c3cc(c(F)cc31)-c1csc(n1)C[C@H](NC(=O)[C@H](C(C)C)N1CCC3(CCN(C(=O)[C@H](F)Cl)CC3)C1=O)C(=O)N1CCC[C@H](N1)C(=O)OCC(C)(C)C2` (atropisomer, axis not shown; (M)) [Example 50, (2S)-2-[8-[(2R)-2-chloro-2-fluoro-acetyl]-1-oxo-2,8-diazaspiro[4.5]decan-2-yl]-N-[(7S,13S)-21-ethyl-24-fluoro-(20M)-20-[2-[(1S)-1-methoxyethyl]-5-morpholino-3-pyridyl]-17,17-dimethyl-8,14-dioxo-15-oxa-4-thia-9,21,27,28-tetrazapentacyclo[17.5.2.1^2,5.1^9,13.0^22,26]octacosa-1(25),2,5(28),19,22(26),23-hexaen-7-yl]-3-methyl-butanamide]: the IC50 in test [1] was more than 10 µM; in test [2], more than 10 µM; in test [3] it was 0.006 µM; in test [4] it was 0.006 µM; in test [5] it was 0.124 µM.

With `CCn1c(-c2cc(N3CCN(C)CC3)cnc2[C@H](C)OC)c2c3cc(c(F)cc31)-c1csc(n1)C[C@H](NC(=O)[C@H](C(C)C)N1CCC[C@]3(CCN(C(=O)[C@@H](F)Cl)C3)C1=O)C(=O)N1CCC[C@H](N1)C(=O)OCC(C)(C)C2` [Example 23, (2S)-2-[(5S)-2-[(2S)-2-chloro-2-fluoro-acetyl]-6-oxo-2,7-diazaspiro[4.5]decan-7-yl]-N-[(7S,13S)-21-ethyl-24-fluoro-(20M)-20-[2-[(1S)-1-methoxyethyl]-5-(4-methylpiperazin-1-yl)-3-pyridyl]-17,17-dimethyl-8,14-dioxo-15-oxa-4-thia-9,21,27,28-tetrazapentacyclo[17.5.2.1^2,5.1^9,13.0^22,26]octacosa-1(25),2,5(28),19,22(26),23-hexaen-7-yl]-3-methyl-butanamide], the IC50 in test [6] worked out at 0.322 µM; in test [1] it was 2.08 µM; in test [2], 5.39 µM; in test [5], 0.064 µM; in test [7] it was 0.09 µM.
